Data set [1] has as its system human umbilical vein endothelial cells (HUVEC). The experiment in a line: HUVEC proliferation assay (VEGF-stimulated, MTT). The format is cell-based. The conditions noted are these: Homo sapiens, HUVEC; read-out: HUVEC IC50.
Data set [2] in a line: Determination of inhibitor concentration in mouse plasma after intraperitoneal and oral dosing. The format is in vivo. The method in brief: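 Plasma levels quantified by HPLC or LC-MS using a standard curve prepared in mouse plasma, following ethyl acetate extraction with internal standard and sodium hydroxide. Sampling at 0.5, 1, 4 h (ocular bleed) and 7 h (cardiac puncture) after oral or intraperitoneal dosing.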

Data set [3] is described as follows: Human liver microsome (HLM) assay. The format is in vitro ADME. The conditions noted are these: human liver microsomes, 5 μM test compound. How it is done:
Human Liver Microsome (HLM) Assay Compound metabolism in human liver microsomes was measured by LC-MS analytical assay procedures as follows. […] (3 tubes per test compound-triplicate). […] The samples were then transferred to separate polypropylene microcentrifuge tubes and centrifuged at 14000 g for 10 min. (Fisher Micro […] M0017580). For each replicate (#1-3) at each timepoint (0 and 2 h), an aliquot sample of each test compound was combined into a single HPLC vial insert (6 total samples) for LC-MS analysis, which is described below.

Data set [4] concerns the target unphosphorylated VEGF-R2Δ50 (FLVK) (Homo sapiens, UniProt P35968, DEL940-989/E990V). The experiment in a line: VEGF-R2 coupled spectrophotometric assay, unphosphorylated VEGF-R2Δ50 (FLVK). Particulars: FLVK Ki, Table 1.
Setting [5] is: IP, 25 mg/kg, vehicle PEG400:H2O pH 2.3 30:70.
Where [6] appears, read: PO, 50 mg/kg, vehicle PEG400:H2O pH 2.3 30:70.
Setting [7] is: female, IP, 25 mg/kg, vehicle PEG400:H2O pH 2.3 30:70, read-out: Cmin (7 hr conc.).
The mark [8] stands for this setting: female, PO, 50 mg/kg, vehicle PEG400:H2O pH 2.3 30:70, read-out: Cmin (7 hr conc.).
Setting [9] is: IP, 25 mg/kg, vehicle PEG400:H2O pH 2.3 60:40.
Where [10] appears, read: PO, 50 mg/kg, vehicle PEG400:H2O pH 2.3 60:40.
Setting [11] is: PO, 25 mg/kg, vehicle PEG400:H2O pH 2.3 30:70.
The mark [12] stands for this setting: female, PO, 25 mg/kg, vehicle PEG400:H2O pH 2.3 30:70, read-out: Cmin (7 hr conc.).

Molecules are shown by their SMILES. Like-named read-outs stand apart in the source and are kept apart here. Marks after values point to notes of the source that are not given here. Bounds are passed on as bounds.

unphosphorylated VEGF-R2Δ50 (FLVK), sequence (P35968 with tags, fused parts or gaps DEL940-989/E990V limits assumed): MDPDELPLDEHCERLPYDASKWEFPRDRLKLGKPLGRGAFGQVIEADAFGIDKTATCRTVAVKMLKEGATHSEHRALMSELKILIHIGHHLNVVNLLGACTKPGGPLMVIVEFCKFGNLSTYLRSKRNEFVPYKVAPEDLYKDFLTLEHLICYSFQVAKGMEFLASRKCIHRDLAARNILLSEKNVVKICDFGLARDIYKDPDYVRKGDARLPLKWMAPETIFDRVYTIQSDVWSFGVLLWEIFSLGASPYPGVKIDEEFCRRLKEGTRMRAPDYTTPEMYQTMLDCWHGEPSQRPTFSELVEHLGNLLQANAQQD

In the case of `C[C@@H]1C[C@H]1C(=O)Nc1cccc(C(=O)c2ccc3c(/C=C/c4ccccn4)n[nH]c3c2)c1` (racemic) [Example 41(h), 6-[3-((2-RS-trans-Methylcyclopropyl)carboxamido)benzoyl]-3-E-[2-(pyridin-2-yl)ethenyl]-1H-indazole], the IC50 in data set [1] was found to be 2 nM. Moreover, the figures for the AUClast in data set [2] (setting [5]) and in data set [2] (setting [6]) were 26911 ng·h/mL and 4677 ng·h/mL, respectively. Besides, the Cmax was determined as 16005 ng/mL in data set [2] (setting [5]) and 4080 ng/mL in data set [2] (setting [6]). Besides, the “plasma half-life (T1/2)” value in data set [2] (setting [5]) came out at 1.2 h; in data set [2] (setting [6]), 0.7 h. The results for the concentration at 7 h in data set [2] (setting [7]) and in data set [2] (setting [8]) were 300 ng/mL and 7 ng/mL, respectively. Further, in data set [3], the “% remain (HLM, 2 h)” value worked out at 8%.

For the compound `O=C(Nc1cccc(Oc2ccc3c(/C=C/c4ccc(Cl)cc4)n[nH]c3c2)c1)c1ccccc1` [Example 6(a), N-(3-{3-[2-(4-Chloro-phenyl)-vinyl]-1H-indazol-6-yloxy}-phenyl)-benzamide], in data set [4], the Ki worked out at 0.74 nM. Besides, the “% remain (HLM, 2 h)” value in data set [3] is 69* %.

For `Cc1cnc(C(=O)Nc2cccc(N(C)c3ccc4c(/C=C/c5ccccc5)n[nH]c4c3)c2)s1` [Example 12(d), 5-Methyl-thiazole-2-carboxylic Acid {3-[Methyl-(3-styryl-1H-indazol-6-yl)-amino]-phenyl}-amide], the Ki in data set [4] turned out to be 0.39 nM. For the same compound, in data set [3], the “% remain (HLM, 2 h)” value is on record as 51%.

The compound `O=C(Nc1cccc(Nc2ccc3c(/C=C/c4ccccc4)n[nH]c3c2)c1)c1ccccc1` [Example 13, N-[3-(3-Styryl-1H-indazol-6-ylamino)-phenyl]-benzamide] had an inhibition constant (Ki) in data set [4] of 1.3 nM. In addition, in data set [3], the “% remain (HLM, 2 h)” value is reported as 69%.

As to `CN(c1cccc(NC(=O)c2ccccc2)c1)c1ccc2c(/C=C/c3ccc4c(c3)OCO4)n[nH]c2c1` [Example 16(a), N-(3-{[3-(2Benzo[1,3]dioxol-5-yl-vinyl)-1H-indazol-6-yl]-methyl-amino}-phenyl)-benzanide], the affinity in data set [4] corresponds to a Ki of 0.08 nM. The “% remain (HLM, 2 h)” value in data set [3] is 7* %.

In data set [4], `Cc1cccc(C(=O)Nc2cccc(N(C)c3ccc4c(/C=C/c5ccc6c(c5)OCO6)n[nH]c4c3)c2)c1` [Example 16(b), N-(3-{[3-(2-Benzo[1,3]dioxol-5-yl-vinyl)-1H-indazol-6-yl]-methyl-amino}-phenyl)-3-methyl-benzamide] yielded a Ki of 0.34 nM. The “% remain (HLM, 2 h)” value in data set [3] is 50%.

Regarding `Cc1cnc(C(=O)Nc2cccc(C(=O)c3ccc4c(/C=C/c5ccccc5)n[nH]c4c3)c2)s1` [Example 19(d), 5-Methyl-thiazole-2-carboxylic Acid[3-(3-styryl-1H-indazole-6-carbonyl)-phenyl]-amide], in data set [4], the Ki came out at 0.72 nM. The “% remain (HLM, 2 h)” value in data set [3] is given as 36%.

`O=C(c1cccc(NC(=O)c2cccc3[nH]ccc23)c1)c1ccc2c(/C=C/c3ccccc3)n[nH]c2c1` [Example 19(f), 6-[3-(Indol-4-ylcarboxamido)benzoyl]-3-E-styryl-1H-indazole] yielded a Ki in data set [4] of 0.18 nM. In addition, the “% remain (HLM, 2 h)” value in data set [3] came to 98%.

For the compound `O=C(Nc1cccc(C(=O)c2ccc3c(/C=C/c4ccccc4)n[nH]c3c2)c1)c1ccncc1` [Example 19(j), 6-[3-(Pyridin-4-ylcarboxamido)benzoyl]-3-E-styryl-1H-indazole], in data set [4], the affinity, expressed as Ki, was 0.33 nM. Also, in data set [2] (setting [9]), the AUClast is 23205 ng·h/mL, the Cmax came out at 5764 ng/mL and the “plasma half-life (T1/2)” value was 1.6 h. Besides, in data set [2] (setting [10]), the AUClast was determined as 5889 ng·h/mL, the Cmax was 1937 ng/mL and the “plasma half-life (T1/2)” value came out at 1.2 h. Also, the concentration at 7 h in data set [2] (female, IP, 25 mg/kg, vehicle PEG400:H2O pH 2.3 60:40, read-out: Cmin (7 hr conc.)) is 456 ng/mL. The concentration at 7 h in data set [2] (female, PO, 50 mg/kg, vehicle PEG400:H2O pH 2.3 60:40, read-out: Cmin (7 hr conc.)) was 63 ng/mL. In data set [3], the “% remain (HLM, 2 h)” value came to 66%.

With `O=C(c1cccc(NC(=O)c2cccc(Cl)n2)c1)c1ccc2c(/C=C/c3ccccc3)n[nH]c2c1` [Example 19(m), 6-[3-(6-Chloropyridin-2-ylcarboxamido)benzoyl]-3-E-styryl-1H-indazole], the affinity in data set [4], expressed as Ki, was 0.68 nM. The “% remain (HLM, 2 h)” value in data set [3] worked out at 61%.

In the case of `O=C(Nc1cccc(Oc2ccc3c(/C=C/c4cccs4)n[nH]c3c2)c1)c1ccccc1` [Example 30(a), 6-[3-Benzamidophenoxy]-3-E-[2-(thien-2-yl)ethenyl]-1H-indazole], the Ki in data set [4] was 1.7 nM. In data set [3], the “% remain (HLM, 2 h)” value worked out at 64%.

Compound `O=C(Nc1cccc(Oc2ccc3c(/C=C/c4ccco4)n[nH]c3c2)c1)c1ccccc1` [Example 30(c), 6-[3-Benzamidophenoxy]-3-E-[2-(fur-2-yl)ethenyl]-1H-indazole] came in with a Ki in data set [4] of 0.83 nM. Also, in data set [3], the “% remain (HLM, 2 h)” value came out at 54%.

`O=C(Nc1cccc(Oc2ccc3c(/C=C/c4ccccn4)n[nH]c3c2)c1)c1ccccc1` [Example 31(a), 6-[3-Benzamidophenoxy]-3-E-[2-(pyridin-2-yl)ethenyl]-1H-indazole] returned a Ki in data set [4] of 0.29 nM. Further, the AUClast in data set [2] (setting [5]) is 47538 ng·h/mL; in data set [2] (setting [6]) it was 40863 ng·h/mL. Also, the figures for the Cmax in data set [2] (setting [5]) and in data set [2] (setting [6]) were 13018 ng/mL and 14499 ng/mL, respectively. Besides, the entries for the “plasma half-life (T1/2)” value in data set [2] (setting [5]) and in data set [2] (setting [6]) were 2.4 h and 1.6 h, respectively. For the same compound, the concentration at 7 h in data set [2] (setting [7]) was determined as 1910 ng/mL; in data set [2] (setting [8]) it was 834 ng/mL. Further, in data set [3], the “% remain (HLM, 2 h)” value is listed as 58%.

In the case of `Cn1ccnc1C(=O)Nc1cccc(Oc2ccc3c(/C=C/c4ccccn4)n[nH]c3c2)c1` [Example 31(e), 6-[3-((1-Methylimidazol-2-yl)carboxaniido)phenoxy]-3-E-[2-(pyridin-2-yl)ethenyl]-1H-indazole], the Ki in data set [4] stood at 0.02 nM. Besides, in data set [2] (setting [11]), the “plasma half-life (T1/2)” value was found to be 13.1 h. In data set [2] (female, PO, 25 mg/kg, vehicle PEG400:H2O pH 2.3 30:70), the AUC(0-t) is > 30300 ng·h/mL. In data set [2] (setting [12]), the concentration at 7 h stood at 2950 ng/mL. Besides, in data set [3], the “% remain (HLM, 2 h)” value turned out to be 49%.

`O=C(Nc1ccccc1)c1ccccc1Sc1ccc2c(/C=C/c3ccccn3)n[nH]c2c1` [Example 33(c), 6-[2-(Phenylcarbamoyl)phenylsulfanyl]-3-E-[2-(pyridin-2-yl)ethenyl]-1H-indazole] yielded a Ki in data set [4] of 0.28 nM. Also, in data set [2] (setting [5]), the AUClast worked out at 697 ng·h/mL, the Cmax was 505 ng/mL and the “plasma half-life (T1/2)” value was found to be 1.2 h. For the same compound, in data set [2] (setting [6]), the AUClast stood at 183 ng·h/mL, the Cmax was determined as 94 ng/mL and the “plasma half-life (T1/2)” value worked out at 3.0 h. For the same compound, in data set [2] (setting [7]), the concentration at 7 h was found to be 7 ng/mL. Besides, the concentration at 7 h in data set [2] (setting [8]) is 5 ng/mL. The “% remain (HLM, 2 h)” value in data set [3] turned out to be 16%.

Consider `O=C(NC1CC1)c1ccccc1Sc1ccc2c(/C=C/c3ccccn3)n[nH]c2c1` [Example 33(e), 6-[2-(Cyclopropylcarbamoyl)phenylsulfanyl]-3-E-[2-(pyridin-2-yl)ethenyl]-1H-1H-indazole], for which the Ki in data set [4] was determined as 1.7 nM. Besides, the AUClast was 14323 ng·h/mL in data set [2] (setting [5]) and 13290 ng·h/mL in data set [2] (setting [6]). Also, the “plasma half-life (T1/2)” value in data set [2] (setting [5]) is 1.0 h; in data set [2] (setting [6]), 0.7 h. Moreover, the concentration at 7 h in data set [2] (setting [7]) is 94 ng/mL; in data set [2] (setting [8]), 12 ng/mL. For the same compound, the “% remain (HLM, 2 h)” value in data set [3] is on record as 54%.

Consider `COc1cccc(C(=O)Nc2cccc(C(=O)c3ccc4c(/C=C/c5ccccn5)n[nH]c4c3)c2)c1` [Example 41(bb), 6-[3-(3-Methoxybenzamido)benzoyl]-3-E-[2-(pyridin-2-yl)ethenyl]-1H-indazole], for which, in data set [2] (setting [6]), the AUClast came out at 2178 ng·h/mL, the Cmax is 596 ng/mL and the “plasma half-life (T1/2)” value amounted to 2.0 h. Moreover, the concentration at 7 h in data set [2] (setting [8]) is 75 ng/mL. Moreover, the “% remain (HLM, 2 h)” value in data set [3] was determined as 110%.

For the compound `CC(C)=CC(=O)Nc1cccc(C(=O)c2ccc3c(/C=C/c4ccccn4)n[nH]c3c2)c1` [Example 41(dd), 6-[3(3,3-Dimethylacrylamido)benzoyl]-3-E-[2-(pyridin-2-yl)ethenyl]-1H-indazole], in data set [2] (setting [11]), the AUClast came out at 654 ng·h/mL and the “plasma half-life (T1/2)” value was found to be 0.8 h. The concentration at 7 h in data set [2] (setting [12]) came out at 1 ng/mL. Moreover, in data set [3], the “% remain (HLM, 2 h)” value worked out at 7%.

As for `Cc1cc(C(=O)Nc2cc(C(=O)c3ccc4c(/C=C/c5ccccn5)n[nH]c4c3)ccc2C)n(C(C)C)n1` [Example 41(kk), 6-[3-((1-Isopropyl-3-methyl-1H-pyrazol-5-yl)carboxamido)-4-methylbenzoyl]-3-E-[2-(pyridin-2-yl)ethenyl]-1H-indazole], in data set [2] (setting [11]), the AUClast came to 11612 ng·h/mL and the “plasma half-life (T1/2)” value was found to be 2.0 h. For the same compound, in data set [2] (setting [12]), the concentration at 7 h turned out to be 415 ng/mL. Also, in data set [3], the “% remain (HLM, 2 h)” value amounted to 63%.

The values are drawn from patent US6534524B1, “Indazole compounds and pharmaceutical compositions for inhibiting protein kinases, and methods for their use” (Agouron Pharmaceuticals, Inc., priority 1999, dated 2003).
